From the supplement of paper PMC10307832

Legend:
Experiment in all cases: relative viability (nuclei count vs DMSO), 5 days (fraction); higher = more cells survive
[1] = compound: O=C(O)C(Cc1ccccc1[N+](=O)[O-])=NNc1nc(-c2ccc(Cl)c(Cl)c2)cs1 (mixture of isomers) [4EGI-1] + CS(=O)(=O)N1CCN(Cc2cc3nc(-c4cccc5[nH]ncc45)nc(N4CCOCC4)c3s2)CC1 [Pictilisib] (partner 1 µM)
Outline: (§1)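 Relative viability divides the nuclei count in treated wells by that in vehicle wells. Lung cancer cell lines were seeded in 1536-well plates, dosed by pin tool the next day, and fixed and stained after 5 days in one step with final 0.05% Triton X-100, 1% formaldehyde and 1 ug/ml Hoechst. Dosing was a single drug or a fixed anchor-drug dose plus five library-drug doses (not always all listed) in √10 steps, and values are medians of duplicate plates imaged at 4×.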

[2] = compound: O=C(O)C(Cc1ccccc1[N+](=O)[O-])=NNc1nc(-c2ccc(Cl)c(Cl)c2)cs1 (mixture of isomers) [4EGI-1] + O=C(c1cc(Cc2n[nH]c(=O)c3ccccc23)ccc1F)N1CCN(C(=O)C2CC2)CC1 [Olaparib] (partner 8 µM)
Outline: as §1

[3] = compound: CN1CCN(CC1)C2=CC(=C(C=C2)NC3=NC=C4C(=N3)N(C5=CC=CC=C5C(=O)N4C)C)OC [XMD8-85] + CC(=O)Nc1cccc(-n2c(=O)n(C3CC3)c(=O)c3c(Nc4ccc(I)cc4F)n(C)c(=O)c(C)c32)c1 [Trametinib] (partner 0.02 µM)
Outline: as §1

[4] = compound: CN1CCN(CC1)C2=CC(=C(C=C2)NC3=NC=C4C(=N3)N(C5=CC=CC=C5C(=O)N4C)C)OC [XMD8-85] + CCNC(=O)c1noc(-c2cc(C(C)C)c(O)cc2O)c1-c1ccc(CN2CCOCC2)cc1 [Luminespib] (partner 0.01 µM)
Outline: as §1

| Cell Line | relative viability ([1]; first compound 0.5 µM) | relative viability ([1]; first compound 1.581 µM) | relative viability ([1]; first compound 5 µM) | relative viability ([1]; first compound 15.81 µM) | relative viability ([1]; first compound 50 µM) | relative viability ([2]; first compound 0.5 µM) | relative viability ([2]; first compound 1.581 µM) | relative viability ([2]; first compound 5 µM) | relative viability ([2]; first compound 15.81 µM) | relative viability ([2]; first compound 50 µM) | relative viability ([3]; first compound 0.08 µM) | relative viability ([3]; first compound 0.253 µM) | relative viability ([3]; first compound 0.8 µM) | relative viability ([3]; first compound 2.53 µM) | relative viability ([3]; first compound 8 µM) | relative viability ([4]; first compound 0.08 µM) | relative viability ([4]; first compound 0.253 µM) | relative viability ([4]; first compound 0.8 µM) | relative viability ([4]; first compound 2.53 µM) | relative viability ([4]; first compound 8 µM) |
| --- | --- | --- | --- | --- | --- | --- | --- | --- | --- | --- | --- | --- | --- | --- | --- | --- | --- | --- | --- | --- |
| NCI-H1355 | 0.372 | 0.396 | 0.493 | 0.362 | 0.277 | 0.86 | 0.742 | 0.795 | 0.469 | 0.334 | 0.414 | 0.424 | 0.384 | 0.356 | 0.284 | 0.528 | 0.747 | 0.697 | 0.642 | 0.6 |
| HOP-62 | 0.576 |  | 0.709 | 0.546 | 0.256 | 0.493 |  | 0.445 | 0.208 | 0.267 | 0.368 | 0.378 | 0.34 | 0.339 | 0.129 | 0.932 |  | 0.911 | 0.762 | 0.683 |
| BEN | 0.594 | 0.656 | 0.667 | 0.51 | 0.46 | 1.15 | 1.09 | 1.2 | 0.891 | 0.595 | 0.866 | 1 | 0.983 | 0.829 | 0.681 | 0.248 | 0.333 | 0.851 | 0.357 | 0.317 |
| NCI-H2023 | 0.275 |  | 0.207 | 0.177 | 0.0916 | 0.5 | 0.306 | 0.432 | 0.127 | 0.0742 | 0.515 | 0.535 | 0.685 | 0.557 | 0.284 | 0.406 | 0.751 |  | 0.649 | 0.407 |
| NCI-H1651 | 0.627 | 0.632 | 0.576 | 0.508 | 0.21 | 0.186 | 0.176 | 0.185 | 0.189 | 0.151 | 0.842 | 0.886 | 0.739 | 0.76 | 0.716 | 0.785 | 1.08 | 0.774 | 0.667 | 0.46 |
| NCI-H1666 | 0.38 | 0.343 | 0.524 | 0.376 | 0.266 | 0.74 | 0.727 | 0.778 | 0.622 | 0.488 | 0.918 | 0.868 | 0.852 | 0.947 | 0.794 | 1 | 1.03 | 0.986 | 1.04 | 0.877 |
| LCLC-103H | 0.57 | 0.541 | 0.591 | 0.574 | 0.451 | 0.72 | 0.658 | 0.728 | 0.699 | 0.415 | 0.728 | 0.637 | 0.683 | 0.676 | 0.522 | 0.96 | 0.941 | 0.864 | 1.12 | 0.704 |
| LU99A | 0.375 |  | 0.346 | 0.326 | 0.247 | 0.243 | 0.212 | 0.242 | 0.193 | 0.141 | 0.51 | 0.538 | 0.55 | 0.53 | 0.433 | 0.228 | 0.252 | 0.206 | 0.309 | 0.193 |
| NCI-H322M | 0.56 | 0.467 | 0.527 | 0.443 | 0.5 | 0.761 |  | 0.795 | 0.761 | 0.457 | 0.534 | 0.5 | 0.44 | 0.418 | 0.455 | 0.609 | 0.823 | 0.797 | 0.927 | 0.68 |
